Results as given in paper PMC4003389, “Identification of pheromone components and their binding affinity to the odorant binding protein CcapOBP83a-2 of the Mediterranean fruit fly, Ceratitis capitata” (Insect Biochemistry and Molecular Biology, 2014).
Values joined by “and” are separate entries in the source; they are usually repeats but may differ in a detail not shown here. Equal entries are not always repeated. Where two headings read alike, the source gives them in different places.

Experiments:
[1] = test system: antennae of male and female C. capitata; assay: Coupled GC–EAG of male volatile extract on medfly antennae; design: species or system Ceratitis capitata; conditions: for electrophysiological (EAG) response, in words: GC–EAG of male volatile extract; for EAG response: number of females (F) that showed a positive EAG response: female antennae; for EAG response: number of females (F) that showed a positive EAG response / EAG response: number of males (M) that showed a positive EAG response: in a total of five replicates, GC–EAG; for EAG response: number of males (M) that showed a positive EAG response: male antennae
Experimental: Electrical responses to chemical stimuli were recorded from the antennae of both sexes using 4 day-old virgin individuals. Electroantennogram (EAG) recordings were made with Ag–AgCl glass microelectrodes filled with Ringer solution (for 1 L H2O solution: 7.2 g NaCl, 0.37 g KCl, 0.17 g CaCl2, pH 7.3–7.4). The head of a fly (both male and female), anaesthetised by chilling, was excised from the body with a microscalpel and the tip of one of the two arista was cut off with micro-scissors. The indifferent electrode was inserted in the head (from the base to the top-frontal part) and the recording electrode was positioned over the cut arista. Signals were passed through a high impedance amplifier (UN-06, Hilversum, The Netherlands) and analysed using a customised software package (Syntech). […] The oven was maintained at 30 °C for 2 min and then programmed for increments at 5 °C min^−1 to 250 °C. The carrier gas was helium. Outputs from the EAG amplifier and the FID were monitored simultaneously and analysed using the Syntech software package. […] The stimulus (2 s duration) was delivered into a purified airstream (1 l/min) flowing continuously over the preparation using a stimulus controller (Syntech CS02). Samples (10 μl) of the standard solution of test compounds (1 mg/ml in redistilled hexane) were applied in the cartridge. The control stimulus was hexane (10 μl). Five replicates were performed for each sample using antennae from 5 different flies.

[2] = molecular target: T1, CcapOBP83a-2 (Ceratitis capitata, UniProt W8W3U3); assay: biochemical; assay type: binding; conditions: for IC50: read-out: IC50 (concentration of ligand halving the initial fluorescence level); for Ki: read-out: Ki (dissociation constant)
Experimental: The 1-NPN/protein mixture was excited at 337 nm and the emission was recorded between 380 and 450 nm on a Perkin Elmer LS 55 Fluorescence spectrometer (Cambridge–UK) at 25 °C in a right angle configuration with a 1 cm light path quartz cuvette. The excitation and emission slits were both 5 nm. Data were recorded and graphed using FL WinLab Software (Perkin–Elmer). […] Analyses were performed by nonlinear regression curve fitting using GraphPad Prism 5 (GraphPad Software, Inc, La Jolla, USA).

[3] = molecular target: T1, CcapOBP83a-2; assay: Binding of fluorescent probe 1-NPN to CcapOBP83a-2 (fluorescence titration); conditions: for Kd: dissociation constant (KD) of 1-NPN, protein 2 μM, 20 mM Tris–HCl pH 7.4; for saturation level of 1-NPN: protein concentration ≈2 μM
Experimental: To measure the binding affinity of the fluorescent probe 1-NPN to CcapOBP83a-2, a 2 μM solution of protein in 20 mM Tris–HCl pH 7.4 was titrated with aliquots of 1 mM 1-NPN stock to a final concentration of 0.1–50 μM in methanol. The 1-NPN/protein mixture was excited at 337 nm and the emission was recorded between 380 and 450 nm on a Perkin Elmer LS 55 Fluorescence spectrometer (Cambridge–UK) at 25 °C in a right angle configuration with a 1 cm light path quartz cuvette. The excitation and emission slits were both 5 nm. Data were recorded and graphed using FL WinLab Software (Perkin–Elmer). The affinity of other ligands was measured in competitive binding assays, using 1-NPN as fluorescent reporter at 3 μM concentration and final concentrations of each competitor from 0.1 μM to 50 μM. To determine binding constants, the fluorescent intensity values at the maximum emission (after subtracting those measured without protein) were plotted against free ligand concentrations. […] IC50 values (the concentration of ligand halving the initial fluorescence level) were used to calculate each competitor dissociation constants (KD), by the equation: KD = IC50/1 + [1 − NPN]/K1-NPN, where [1 − NPN] is the free concentration of 1 − NPN and K1-NPN is the dissociation constant of the 1-NPN/protein complex. Analyses were performed by nonlinear regression curve fitting using GraphPad Prism 5 (GraphPad Software, Inc, La Jolla, USA).

[4] = first fraction, ligand 50 μM, 1-NPN 3 μM
[5] = second fraction, ligand 50 μM, 1-NPN 3 μM

T1 sequence (W8W3U3 entry or part of it): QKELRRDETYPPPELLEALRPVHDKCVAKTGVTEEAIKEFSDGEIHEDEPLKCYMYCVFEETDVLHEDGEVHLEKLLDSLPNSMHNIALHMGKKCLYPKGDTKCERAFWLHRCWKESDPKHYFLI

SMILES	electrophysiological (EAG) response, in words [1]	EAG response: number of females (F) that showed a positive EAG response [1]	EAG response: number of males (M) that showed a positive EAG response [1]	Int (end point fluorescent level): fluorescence intensity after the maximum quantity of chemical was added [2, 4]	Int (end point fluorescent level): fluorescence intensity after the maximum quantity of chemical was added [2, 5]	IC50 ([2]; second fraction, 1-NPN 3 μM) [µM]	Ki ([2]; second fraction, 1-NPN 3 μM)	Kd ([3]; first fraction of CcapOBP83a-2) [nM]	Kd ([3]; second fraction of CcapOBP83a-2)	saturation level of 1-NPN ([3]; first fraction) [µM]	saturation level of 1-NPN ([3]; second fraction) [µM]	Int (end point fluorescent level): fluorescence intensity after the maximum quantity of chemical was added [2]	binding activity, in words ([2]; first fraction)	Ki ([2]; first fraction, 1-NPN 3 μM) [nM]
CCC(C)C(C)=O (racemic) [(RS)-3-Methylpentan-2-one]	response only on the female antennae	3	0	65.3	58.3									
C=CC(C)(O)CCC=C(C)C (racemic) [(RS)-Linalool]		3	4	66.6	44.7	41	6100 nM							
c1ccc(Nc2cccc3ccccc23)cc1 [1-NPN, N-phenyl-1-naphthylamine]								10500 ± 1400	600 nM and 617 nM	10 to 20	5 to 10			
CC(C)CCO [3-Methylbutan-1-ol]		M4F4	M4F4									63.4 and 55.6		
C=C/C(C)=C/CC=C(C)C [(E)-Ocimene]	response only on the female antennae	4	0	66.3	50.7	50	8200 nM and 8170 nM							
C=CC(=C)CC/C=C(\C)CCC=C(C)C [(E)-β-Farnesene, reference compound]				75.1	33.6		200 nM						limited degree of binding	1400
C=C/C(C)=C/C/C=C(\C)CCC=C(C)C [(E,E)-α-Farnesene]	small responses in both male and female flies	3	2	34.3	14.4	1.2	100 nM and 133 nM							6560
C[C@@H](O)[C@@H](C)O [(RR)-2,3-Butanediol]		3	2	62.9	58.3									
C=C/C(C)=C\CC=C(C)C [(Z)-Ocimene]		M4F4	M4F4	49.9	23.4	13.5	1900 nM and 1890 nM							4520
CC1CCOC1=O (stereo not drawn) [Dihydro-3-methyl-2-(3H)-furanone]		4	3	66.5	58.1									
CC/C=C/CC(=O)OCC [Ethyl (E)-3-hexenoate]		M4F4	M4F4	68.5	51.5									
CCCC/C=C/CC(=O)OCC [Ethyl (E)-3-octenoate]		M4F4	M4F4	55.6	24.2	18	2410 nM							
CCCCCCCC(=O)OCC [Ethyl octanoate, reference compound]				66.3	26.1	15	2000 nM and 1960 nM							
CC(=O)OC/C=C(\C)CCC=C(C)C [Geranyl acetate]		4	5	70.4	17.4	6.5	900 nM and 901 nM							
c1ccc2[nH]ccc2c1 [Indole]		M3F3	M3F3	66.2	60.1									
C=CCc1ccc(OC)c(OC)c1 [Methyleugenol, reference compound]				61.9	46.0	43	4640 nM							
C=CC(=C)CCC=C(C)C [Myrcene]	response only on the female antennae	4	0	77.5	39.6	10	900 nM and 879 nM							
OC1COCC1O (stereo not drawn) [Tetrahydro-3,4-furandiol]		4	2	66.2	59.9									
CC1CC(Cl)CCC1C(=O)OC(C)(C)C (stereo not drawn) [Trimedlure, t-Butyl-2-methyl-4-chlorocyclohexanecarboxylate, reference compound]				66.0	9.8	2.1	300 nM and 322 nM							
